Measured values from US10662218B2, “Analogs of celastrol” (ERX Pharmaceuticals, Inc., priority 2015, dated 2020).
In brackets after ≈: the same amount, converted by molar mass. Several values for one entry are separate records, joined by “and”; a condition that tells them apart may be missing. Equal values may be shown once. Read-outs that look alike come from different tables or passages of the source.

Legend:
physchem = assay: physchem
Method: • Test concentration: 100 μM (1% of DMSO) • Test systems: PBS (pH 7.4) • Incubation condition: shaken (1000 rpm) for 1 h at room temperature • Sample size: Duplicates (n=2) • Bioanalytical method: LC-MS/MS

[1] = tested on: C57BL/6 Diet Induced Obese (DIO) mice; assay: Oral (P.O.) administration study in DIO mice: in vivo activity, body weights; parameters: species or system mouse; settings: for change in vivo at 2 mg/kg: Mus musculus, po, difference of group mean, read-out: Body weight, %-Diff
From the text: The purpose of this study was to assess test articles in the Diet Induced Obese (DIO) mouse.
Male C57BL/6 Diet Induced Obese (DIO) mice were received from Taconic. Animals were acclimated to housing conditions for at least 1 week prior to vehicle acclimation dosing. Animals were acclimated to oral gavage dosing with vehicle once daily for Days 11 through 14 of the predose phase.
At initiation of dosing, animals were 21 to 22 weeks old, and their body weights ranged from 29.8 to 40.1 g.
Dose formulations were administered by oral gavage once daily for 10 days at a dose volume of 2 mL/kg. Doses were based on the most recently recorded scheduled body weight.
Body weights were recorded daily on Days 11 through 14 of the predose phase. Body weights were collected for all animals daily during the dosing phase prior to dosing.
Descriptive statistics (n, mean, standard error of the mean, standard deviation) were completed. Additionally, one-way analysis of variance followed by Dunnett's post-hoc test were performed on body weight (cumulative body weight change), glucose (glucose percent change), and food consumption (cumulative food consumption). Area under the curve (for body weight, cumulative body weight change, daily body weight change, and food consumption) was computed for treatment groups. An appropriate comparison test, such as one-way analysis of variance and Dunnett's, was performed on the group means for the area under the curve computations. Any additional statistical analysis and interpretation of the results were the responsibility of the sponsor.

[2] = pH 7.4, aqueous buffer, kinetic from dmso stock, Solubility (μM) Mean, Table 6-B; PBS (pH 7.4), test concentration 100 μM (1% of DMSO), shaken (1000 rpm) 1 h at room temperature, n = 2
[3] = pH 7.4, aqueous buffer, kinetic from dmso stock, Solubility (μM), Table 6-D; PBS (pH 7.4)
[4] = PBS (pH 7.4), pH 7.4, aqueous buffer, kinetic from dmso stock, Solubility (μM) Mean, Table 6-B, test concentration 100 μM (1% of DMSO), shaken (1000 rpm) 1 h at room temperature, n = 2
[5] = PBS (pH 7.4), pH 7.4, aqueous buffer, kinetic from dmso stock, Solubility (μM), Table 6-D

## CC1=C(O)C(=O)C=C2C1=CC=C1[C@@]2(C)CC[C@@]2(C)[C@@H]3C[C@](C)(C(N)=O)CC[C@]3(C)CC[C@]12C [ERX1006]
physchem; [2]
  solubility: 1.15 µM (≈ 0.517 µg/mL)
physchem; [3]
  solubility: 1.15 µM (≈ 0.515 µg/mL)
[1]; 2 mg/kg oral gavage once daily, dosing phase Day 1
  Body weight %-Diff: −1%
[1]; 2 mg/kg oral gavage once daily, dosing phase Day 1, N 5
  Body weight, Mean: 34.1 g
[1]; 2 mg/kg oral gavage once daily, dosing phase Day 2
  Body weight %-Diff: −2%
[1]; 2 mg/kg oral gavage once daily, dosing phase Day 2, N 5
  Body weight, Mean: 33.9 g
[1]; 2 mg/kg oral gavage once daily, dosing phase Day 3
  Body weight %-Diff: −1%
[1]; 2 mg/kg oral gavage once daily, dosing phase Day 3, N 5
  Body weight, Mean: 33.4 g
[1]; 2 mg/kg oral gavage once daily, dosing phase Day 4
  Body weight %-Diff: −2%
[1]; 2 mg/kg oral gavage once daily, dosing phase Day 4, N 5
  Body weight, Mean: 32.8 g
[1]; 2 mg/kg oral gavage once daily, dosing phase Day 5
  Body weight %-Diff: −4%
[1]; 2 mg/kg oral gavage once daily, dosing phase Day 5, N 5
  Body weight, Mean: 32.6 g
[1]; 2 mg/kg oral gavage once daily, dosing phase Day 6
  Body weight %-Diff: −3%
[1]; 2 mg/kg oral gavage once daily, dosing phase Day 6, N 5
  Body weight, Mean: 32.5 g
[1]; Day 7, DSNG phase, 2 mg/kg, male, N=5
  Body weight, Mean: 32.0 g
[1]; Day 8, DSNG phase, 2 mg/kg, male, N=5
  Body weight, Mean: 31.7 g
[1]; Day 9, DSNG phase, 2 mg/kg, male, N=5
  Body weight, Mean: 31.4 g
[1]; Day 10, DSNG phase, 2 mg/kg, male, N=5
  Body weight, Mean: 31.2 g
[1]; Day 11, DSNG phase, 2 mg/kg, male, N=5
  Body weight, Mean: 30.9 g
[1]; 168 h, Day 7, DSNG phase, 2 mg/kg, male
  change in vivo at 2 mg/kg: -4%
[1]; 192 h, Day 8, DSNG phase, 2 mg/kg, male
  change in vivo at 2 mg/kg: -6%
[1]; 216 h, Day 9, DSNG phase, 2 mg/kg, male
  change in vivo at 2 mg/kg: -5%
[1]; 240 h, Day 10, DSNG phase, 2 mg/kg, male
  change in vivo at 2 mg/kg: -7%
[1]; 264 h, Day 11, DSNG phase, 2 mg/kg, male
  change in vivo at 2 mg/kg: -9%
[1]; individual male DIO mouse of the 2 mg/kg group, pre-dose phase day 11 (baseline)
  Individual Body Weight, PRED 11: 37.6 g and 34.5 g and 32.2 g and 35.2 g and 36.7 g
[1]; individual male DIO mouse of the 2 mg/kg group, pre-dose phase day 12 (baseline)
  Individual Body Weight, PRED 12: 38.0 g and 35.2 g and 32.7 g and 34.8 g and 36.8 g
[1]; individual male DIO mouse of the 2 mg/kg group, pre-dose phase day 13 (baseline)
  Individual Body Weight, PRED 13: 37.4 g and 35.4 g and 32.5 g and 34.1 g and 36.3 g
[1]; individual male DIO mouse of the 2 mg/kg group, pre-dose phase day 14 (baseline)
  Individual Body Weight, PRED 14: 38.5 g and 35.4 g and 32.7 g and 34.3 g and 36.9 g
[1]; individual male DIO mouse, 2 mg/kg, dosing phase day 1, 2 mg/kg
  Individual Body Weight, DSNG 1: 35.7 g and 35.0 g and 32.7 g and 32.4 g and 34.9 g
[1]; individual male DIO mouse, 2 mg/kg, dosing phase day 2, 2 mg/kg
  Individual Body Weight, DSNG 2: 35.0 g and 35.6 g and 31.8 g (2×) and 35.2 g

## CC(=O)Oc1cc2c(c(C)c1OC(C)=O)C(SC(C)C)C=C1[C@@]2(C)CC[C@@]2(C)[C@@H]3C[C@](C)(CN(C)C)CC[C@]3(C)CC[C@]12C (stereo partly drawn) [ERX1115]
physchem; [4]
  solubility at 1 h: 0.56 µM (≈ 0.349 µg/mL)
physchem; [5]
  solubility at 1 h: 0.557 µM (≈ 0.348 µg/mL)

## CC1=C(O)C(=O)C=C2C1=CC=C1[C@@]2(C)CC[C@@]2(C)[C@@H]3C[C@](C)(C(=O)NC(CO)CO)CC[C@]3(C)CC[C@]12C [ERX1029]
physchem; [2]
  solubility: 1.61 µM (≈ 0.843 µg/mL)
physchem; [3]
  solubility: 1.6 µM (≈ 0.841 µg/mL)

## CC(C)NCC(O)COc1cccc2ccccc12 (stereo not drawn) [Propranolol]
physchem; [2]
  solubility at 1 h: 97.5 µM (≈ 25.3 µg/mL)
physchem; pH 7.4, aqueous buffer, kinetic from dmso stock, Solubility (μM) Mean, Table 6-C; PBS (pH 7.4), test concentration 100 μM (1% of DMSO), shaken (1000 rpm) 1 h at room temperature, n = 2
  solubility at 1 h: > 100 µM
physchem; [3]
  solubility at 1 h: 97.5 µM (≈ 25.3 µg/mL)

## CC(=O)N1CCN(c2ccc(OCC3COC(Cn4ccnc4)(c4ccc(Cl)cc4Cl)O3)cc2)CC1 (stereo not drawn) [Ketoconazole]
physchem; [4]
  solubility at 1 h: 35.7 µM (≈ 19 µg/mL)
physchem; PBS (pH 7.4), pH 7.4, aqueous buffer, kinetic from dmso stock, Solubility (μM) Mean, Table 6-C, test concentration 100 μM (1% of DMSO), shaken (1000 rpm) 1 h at room temperature, n = 2
  solubility at 1 h: 35.2 µM (≈ 18.7 µg/mL)
physchem; [5]
  solubility at 1 h: 35.7 µM (≈ 19 µg/mL)

## CC1=C(O)C(=O)C=C2C1=CC=C1[C@@]2(C)CC[C@@]2(C)[C@@H]3C[C@](C)(NS(C)(=O)=O)CC[C@]3(C)CC[C@]12C [ERX1175]
physchem; [4]
  solubility at 1 h: 4.03 µM (≈ 2.01 µg/mL)
physchem; [5]
  solubility at 1 h: 4.03 µM (≈ 2.01 µg/mL)

## CC1=C(O)C(=O)C=C2C1=CC=C1[C@@]2(C)CC[C@@]2(C)[C@@H]3C[C@](C)(CN4CCN(C)CC4)CC[C@]3(C)CC[C@]12C [ERX1117]
physchem; [4]
  solubility at 1 h: 0.91 µM (≈ 0.472 µg/mL)
physchem; [5]
  solubility at 1 h: 0.914 µM (≈ 0.474 µg/mL)

## CC(=O)Oc1cc2c(c(C)c1OC(C)=O)C(SC(C)C)C=C1[C@@]2(C)CC[C@@]2(C)[C@@H]3C[C@](C)(C(N)=O)CC[C@]3(C)CC[C@]12C (stereo partly drawn) [ERX1066]
physchem; [4]
  solubility at 1 h: 0.63 µM (≈ 0.384 µg/mL)
physchem; [5]
  solubility at 1 h: 0.627 µM (≈ 0.383 µg/mL)

## CC1=C(O)C(=O)C=C2C1=CC=C1[C@@]2(C)CC[C@@]2(C)[C@@H]3C[C@](C)(C(=O)N4CC(O)C4)CC[C@]3(C)CC[C@]12C [ERX1020]
physchem; [2]
  solubility: 0.54 µM (≈ 0.273 µg/mL)
physchem; [3]
  solubility: 0.54 µM (≈ 0.273 µg/mL)
